{"source": "patent US20110190398A1", "about": "“USE OF IMMUNOS[…] IN A NEW INDICATION” (NOVARTIS AG, priority 2008, published 2011)", "assay_type_in_all_cases": "in vivo, Lewis rats", "key": {"[1]": {"system": "Experimental Autoimmune Neuritis", "experiment": "EAN clinical score, suppressive treatment", "details": "EAN rats, 1 mg/kg intragastrically once daily from immunization until Day 22; scale 0-10; control maximal 4.80±0.51 at Day 13", "procedure": "(§1) Male Lewis rats (8-10 weeks, 180-200 g, Elevage-Janvier, France) were housed under a 12 h light-12 h dark cycle and with free access to food and water. All animal procedures were in accordance with a protocol approved by the local Administration District Official Committee. All efforts were made to minimize the number of animals and their suffering.\n(§2) For EAN induction, rats were immunized by subcutaneous injection into both hind footpads with 100 μL of an inoculum containing 100 μg of synthetic neuritogenic P2 57-81 peptide (GeneScript Corporation, Scotch Plains, N.J., USA). The peptide was dissolved in phosphate buffered saline (PBS) (2 mg/mL) and then emulsified with an equal volume of complete Freund's adjuvant (CFA) containing 2 mg/mL mycobacterium tuberculosis to get a final concentration of 1 mg/mL.\nEAN clinical scores were evaluated every day as follows: 0=normal, 1=reduced tonus of tail, 2=limp tail, impaired righting, 3=absent righting, 4=gait ataxia, 5=mild paresis of the hind limbs, 6=moderate paraparesis, 7=severe paraparesis or paraplegia of the hind limbs, 8=tetraparesis, 9=moribund, and 10=death (Zhang et al., 2009A).\nCompound A was tested at a concentration of 1 mg/kg (suspended in a water vehicle). The compound A suspension was intragastrically administrated immediately after induction and then once daily until Day 22 (5 rats per group). […]"}, "[2]": {"system": "Experimental Autoimmune Neuritis", "experiment": "Body weight course in EAN rats", "details": "1 mg/kg once daily, control showed significant weight loss Day 10 to 18", "procedure": "as §1, §2\nCompound A was tested at a concentration of 1 mg/kg (suspended in a water vehicle). The compound A suspension was intragastrically administrated immediately after induction and then once daily until Day 22 (5 rats per group). For control EAN rats, the same volume of 1% CMC in water was given."}, "[3]": {"system": "Experimental Autoimmune Neuritis", "experiment": "Immunohistochemistry of inflammatory cell infiltration in EAN sciatic nerves", "details": "EAN rats, Day 16, 1 mg/kg, sciatic nerve cross-sections, n=5"}, "[4]": {"system": "Experimental Autoimmune Neuritis", "experiment": "Luxol Fast Blue staining, semiquantitative histological score of EAN sciatic nerves", "details": "EAN rats, Day 16, 1 mg/kg in water vehicle, LFB staining of sciatic nerves, scale 0-3", "procedure": "as §1\nFor EAN induction, rats were immunized by subcutaneous injection into both hind footpads with 100 μL of an inoculum containing 100 μg of synthetic neuritogenic P2 57-81 peptide (GeneScript Corporation, Scotch Plains, N.J., USA). […]\nThe routine Luxol Fast Blue (LFB) staining was applied to show myelin. […] Briefly, four cross-sections from root and middle level of both sides of EAN rats were analyzed. All perivascular areas present in cross-sections were evaluated by two observers unaware of the treatment, and the degree of pathological alteration was graded semiquantitatively on the following scale: 0=normal perivascular area; 1=mild cellular infiltrate adjacent to the vessel; 2=cellular infiltration plus demyelination in immediate proximity to the vessel; and 3=cellular infiltration and demyelination throughout the section. […]"}}, "note": "Structures can show the parent of a compound that is named as a salt."}
{"smiles": "CCC(N)(CO)CCc1ccc(Sc2cccc(OCc3ccccc3)c2)cc1Cl", "note": "(stereo not drawn) [Compound A, 2-amino-4-[4-(3-benzyloxyphenylthio)-2-chlorophenyl]-2-ethylbutane-1-ol hydrochloride]", "values": [{"measurement": "mean neurological score", "setting": "[1]", "value": "< 0.1"}, {"measurement": "weight loss", "setting": "[2]", "value": "a reduced level of weight loss was observed from Day 13 to 15"}, {"measurement": "Area of immunoreactivity/area of sciatic nerves (%) for B cells (OX22+)", "setting": "[3]", "value": "<0.01", "unit": "%"}, {"measurement": "Area of immunoreactivity/area of sciatic nerves (%) for Macrophages (ED1+)", "setting": "[3]", "value": "<0.05", "unit": "%"}, {"measurement": "Area of immunoreactivity/area of sciatic nerves (%) for T cells (W3/13+)", "setting": "[3]", "value": "<0.01", "unit": "%"}, {"measurement": "Mean Histological Score", "setting": "[4]", "value": 0.10}]}
